Assay results taken from US4415558A, “CRF And analogs” (The Salk Institute for Biological Studies, priority 1982, dated 1983).
Where a SMILES comes first, the peptide text is derived from it. [ ]: non-standard residue; d: D form. The star is where a group is joined. Nle = CCCC[C@H](N)C(=O)O; Bz = O=C(c1ccccc1)*

Experiments:
[1] = Blood pressure in rats (mean carotid blood pressure, urethane-anesthetized rat); type: in vivo; conditions: general procedure set forth in Example III
Description: Plasma levels of ACTH and β-END-LI are elevated for at least 5-20 minutes following the intravenous administration of CRF to nembutal-anesthesized male rats and to quiescent male or female rats with indwelling intravenous cannulae. […] Mean cartoid blood pressure in a urethane-anesthesized rat fell from 87 to 72±2 mm Hg and remained at that level for 30 minutes following an injection equal to 3 μg CRF/Kg body weight; the subsequent administration of an injection equal to 30 μg CRF/Kg body weight lowered mean blood pressure to 42±3 mm Hg for more than 2 hours.

[2] = test system: cultured rat pituitary cells; test: Secretion of ACTH and β-endorphin by cultured rat pituitary cells; type: cell-based; conditions: general procedure set forth in Example III; in vitro or in vivo not specified
Description: The synthetic and the natural CRF were examined for their effects on the secretion of ACTH and β-endorphin in vitro and the synthetic CRF was also examined in vivo. The high potency of synthetic and natural CRF to stimulate the secretion of ACTH and β-endorphin by cultured rat pituitary cells was measured. […] The secretory response to maximal (>5 nM) concentrations of CRF is at a plateau level. In vivo doses from 30 ng to 3 μg/Kg of body weight rapidly elevated ACTH and β-endorphin-like (β-END-LI) secretions 5-20 fold.

CC[C@H](C)[C@H](NC(=O)[C@@H](NC(=O)[C@H](CC(=O)O)NC(=O)[C@H](CC(C)C)NC(=O)[C@H](CC(C)C)NC(=O)[C@H](CC(C)C)NC(=O)[C@H](CCCNC(=N)N)NC(=O)[C@H](CC(N)=O)NC(=O)[C@H](CC(N)=O)NC(=O)[C@H](C)NC(=O)[C@H](C)NC(=O)[C@H](CCC(N)=O)NC(=O)[C@H](CCC(N)=O)NC(=O)[C@H](CCCCN)NC(=O)[C@H](CCC(=O)O)NC(=O)[C@H](CCCCN)NC(=O)[C@H](CCC(=O)O)NC(=O)[C@H](CCC(N)=O)NC(=O)[C@H](CCCCN)NC(=O)[C@H](CCC(=O)O)NC(=O)[C@@H](NC(=O)[C@H](CCC(=O)O)NC(=O)[C@@H](NC(=O)[C@H](CCSC)NC(=O)[C@H](CCCCN)NC(=O)[C@H](CCCNC(=N)N)NC(=O)[C@H](CC(C)C)NC(=O)[C@H](CC(C)C)NC(=O)[C@H](CCC(=O)O)NC(=O)[C@H](CC(C)C)NC(=O)[C@H](CO)NC(=O)[C@H](CC(C)C)NC(=O)[C@H](CC(=O)O)NC(=O)[C@@H](NC(=O)[C@H](CO)NC(=O)[C@@H](NC(=O)[C@@H]1CCCN1C(=O)[C@@H]1CCCN1)[C@@H](C)CC)[C@@H](C)CC)[C@@H](C)CC)[C@@H](C)CC)[C@@H](C)O)C(N)=O [[des pGlu^1 -Gly^2]-sauvagine]
Lowering of blood pressure (in words) [1]: very significant lowering of blood pressure | Stimulation of secretion of ACTH and β-END-LI (in words) [2]: stimulates the secretion of ACTH and β-END-LI

CC[C@H](C)[C@H](NC(=O)[C@H](CC(=O)O)NC(=O)[C@H](CC(C)C)NC(=O)[C@H](CC(C)C)NC(=O)[C@H](CCCCN)NC(=O)[C@H](CCCNC(=N)N)NC(=O)[C@H](CC(N)=O)NC(=O)[C@H](CO)NC(=O)[C@H](Cc1c[nH]cn1)NC(=O)[C@H](C)NC(=O)[C@H](CCC(N)=O)NC(=O)[C@H](CCC(N)=O)NC(=O)[C@H](C)NC(=O)[C@H](CC(C)C)NC(=O)[C@H](CCC(N)=O)NC(=O)[C@H](CC(=O)O)NC(=O)[C@H](C)NC(=O)[C@H](CCCCN)NC(=O)[C@@H](NC(=O)[C@H](CCSC)NC(=O)[C@H](CCC(=O)O)NC(=O)[C@H](CC(C)C)NC(=O)[C@@H](NC(=O)[C@H](CCC(=O)O)NC(=O)[C@H](CCCNC(=N)N)NC(=O)[C@H](CC(C)C)NC(=O)[C@H](CC(C)C)NC(=O)[C@H](Cc1c[nH]cn1)NC(=O)[C@H](Cc1ccccc1)NC(=O)[C@@H](NC(=O)[C@H](CC(C)C)NC(=O)[C@H](CC(=O)O)NC(=O)[C@H](CC(C)C)NC(=O)[C@H](CO)NC(=O)[C@@H](NC(=O)[C@@H]1CCCN1C(=O)[C@@H]1CCCN1C(C)=O)[C@@H](C)CC)[C@@H](C)O)C(C)C)[C@@H](C)O)C(=O)N[C@@H](C)C(N)=O [[Acetyl-Pro^4]-CRF]
Lowering of blood pressure (in words) [1]: very significant lowering of blood pressure to a greater extent than CRF | Stimulation of secretion of ACTH and β-END-LI (in words) [2]: stimulates the secretion of ACTH and β-END-LI

H-SQEPPISLDLTFYLLREVLE[Nle]TKADQLAQQAHSNRKLLDIA-NH2 [[Tyr^13, Nle^21]-CRF]
Lowering of blood pressure (in words) [1]: very significant lowering of blood pressure to a greater extent than CRF | Stimulation of secretion of ACTH and β-END-LI (in words) [2]: stimulates the secretion of ACTH and β-END-LI

CC[C@H](C)[C@H](NC(=O)[C@@H](NC(=O)[C@H](CC(=O)O)NC(=O)[C@H](CC(C)C)NC(=O)[C@H](CC(C)C)NC(=O)[C@H](CC(C)C)NC(=O)[C@H](CCCNC(=N)N)NC(=O)[C@H](CC(N)=O)NC(=O)[C@H](CC(N)=O)NC(=O)[C@H](C)NC(=O)[C@H](C)NC(=O)[C@H](CCC(N)=O)NC(=O)[C@H](CCC(N)=O)NC(=O)[C@H](CCCCN)NC(=O)CNC(=O)[C@H](CCCCN)NC(=O)[C@H](CCC(=O)O)NC(=O)[C@H](CCC(N)=O)NC(=O)[C@H](CCCCN)NC(=O)[C@H](CCC(=O)O)NC(=O)[C@@H](NC(=O)[C@H](CCC(=O)O)NC(=O)[C@@H](NC(=O)[C@H](CCSC)NC(=O)[C@H](CCCCN)NC(=O)[C@H](CCCNC(=N)N)NC(=O)[C@H](CC(C)C)NC(=O)[C@H](CC(C)C)NC(=O)[C@H](CCC(=O)O)NC(=O)[C@H](CC(C)C)NC(=O)[C@H](CO)NC(=O)[C@H](CC(C)C)NC(=O)[C@H](CC(=O)O)NC(=O)[C@@H](NC(=O)[C@H](CO)NC(=O)[C@@H](NC(=O)[C@@H]1CCCN1C(=O)[C@@H]1CCCN1C(=O)CNC(=O)[C@@H]1CCC(=O)N1)[C@@H](C)CC)[C@@H](C)CC)[C@@H](C)CC)[C@@H](C)CC)[C@@H](C)O)C(N)=O [[Gly^26]-sauvagine]
Lowering of blood pressure (in words) [1]: very significant lowering of blood pressure | Stimulation of secretion of ACTH and β-END-LI (in words) [2]: stimulates the secretion of ACTH and β-END-LI

H-SQEPPISLDLTFHLLREVLEATKADQLAQQAHTNRKLLDI[Nle]-NH2 [[Ala^21, Thr^33, Nle^41]-CRF]
Lowering of blood pressure (in words) [1]: very significant lowering of blood pressure | Stimulation of secretion of ACTH and β-END-LI (in words) [2]: stimulates the secretion of ACTH and β-END-LI

H-SQEPPISLDLTFHLLREVIEMTKAEQLAQQAHSNRKLLDIA-NH2 [[Ile^19, Glu^25]-CRF]
Lowering of blood pressure (in words) [1]: very significant lowering of blood pressure | Stimulation of secretion of ACTH and β-END-LI (in words) [2]: stimulates the secretion of ACTH and β-END-LI

CC[C@H](C)[C@H](NC(=O)[C@H](CC(=O)O)NC(=O)[C@H](CC(C)C)NC(=O)[C@H](CC(C)C)NC(=O)[C@H](CCCCN)NC(=O)[C@H](CCCNC(=N)N)NC(=O)[C@H](CC(N)=O)NC(=O)[C@H](CO)NC(=O)[C@H](Cc1c[nH]cn1)NC(=O)[C@H](C)NC(=O)[C@H](CCC(N)=O)NC(=O)[C@H](CCC(N)=O)NC(=O)[C@H](C)NC(=O)[C@H](CC(C)C)NC(=O)[C@H](CCC(N)=O)NC(=O)[C@H](CC(=O)O)NC(=O)[C@H](C)NC(=O)[C@H](CCCCN)NC(=O)[C@@H](NC(=O)[C@H](CCSC)NC(=O)[C@H](CCC(=O)O)NC(=O)[C@H](CC(C)C)NC(=O)[C@@H](NC(=O)[C@H](CCC(=O)O)NC(=O)[C@H](CCCNC(=N)N)NC(=O)[C@H](CC(C)C)NC(=O)[C@H](CC(C)C)NC(=O)[C@H](Cc1c[nH]cn1)NC(=O)[C@H](Cc1ccccc1)NC(=O)[C@@H](NC(=O)[C@H](CC(C)C)NC(=O)[C@H](CC(=O)O)NC(=O)[C@H](CC(C)C)NC(=O)[C@H](CO)NC(=O)[C@@H](NC(=O)[C@@H]1CCCN1C(=O)[C@@H]1CCCN1C(=O)[C@H](CCC(=O)O)NC(=O)[C@H](CCC(N)=O)NC(=O)[C@@H](N)CO)[C@@H](C)CC)[C@@H](C)O)C(C)C)[C@@H](C)O)C(N)=O [[des Ala^41]-CRF] (H-SQEPPISLDLTFHLLREVLEMTKADQLAQQAHSNRKLLDI-NH2)
Lowering of blood pressure (in words) [1]: very significant lowering of blood pressure | Stimulation of secretion of ACTH and β-END-LI (in words) [2]: stimulates the secretion of ACTH and β-END-LI

CC[C@H](C)[C@H](NC(=O)[C@H](CC(=O)O)NC(=O)[C@H](CC(C)C)NC(=O)[C@H](CC(C)C)NC(=O)[C@H](CCCCN)NC(=O)[C@H](CCCNC(=N)N)NC(=O)[C@H](CC(N)=O)NC(=O)[C@H](CO)NC(=O)[C@H](Cc1c[nH]cn1)NC(=O)[C@H](C)NC(=O)[C@H](CCC(N)=O)NC(=O)[C@H](CCC(N)=O)NC(=O)[C@H](C)NC(=O)[C@H](CC(C)C)NC(=O)[C@H](CCC(N)=O)NC(=O)[C@H](CC(=O)O)NC(=O)[C@H](C)NC(=O)[C@H](CCCCN)NC(=O)[C@@H](NC(=O)[C@H](CCSC)NC(=O)[C@H](CCC(=O)O)NC(=O)[C@H](CC(C)C)NC(=O)[C@@H](NC(=O)[C@H](CCC(=O)O)NC(=O)[C@H](CCCNC(=N)N)NC(=O)[C@H](CC(C)C)NC(=O)[C@H](CC(C)C)NC(=O)[C@H](Cc1c[nH]cn1)NC(=O)[C@H](CC(C)C)NC(=O)[C@@H](NC(=O)[C@H](CC(C)C)NC(=O)[C@H](CC(=O)O)NC(=O)[C@H](CC(C)C)NC(=O)[C@H](CO)NC(=O)[C@@H](NC(=O)[C@@H]1CCCN1C(=O)[C@@H]1CCCN1C(=O)[C@H](CCC(=O)O)NC(=O)[C@H](C)NC(=O)c1ccccc1)[C@@H](C)CC)[C@@H](C)O)C(C)C)[C@@H](C)O)C(=O)N[C@@H](C)C(N)=O [[Benzoyl-Ala^1, des Gln^2, Leu^12]-CRF] (Bz-AEPPISLDLTLHLLREVLEMTKADQLAQQAHSNRKLLDIA-NH2)
Lowering of blood pressure (in words) [1]: very significant lowering of blood pressure | Stimulation of secretion of ACTH and β-END-LI (in words) [2]: stimulates the secretion of ACTH and β-END-LI

H-SQEPPISIDLSFHLLREVLEMTKADQLAQQAHNNRKLLDIA-NH2 [[Ile^8, Ser^11, Asn^33]-CRF]
Lowering of blood pressure (in words) [1]: very significant lowering of blood pressure | Stimulation of secretion of ACTH and β-END-LI (in words) [2]: stimulates the secretion of ACTH and β-END-LI
